The target of test [1] is T1, histamine H3 receptor (hH3R) (Homo sapiens (Human), UniProt Q9Y5N1). Description: [35S]-GTPγS binding assay, inverse agonist mode, HEK293/Ga15/hH3R membranes. Conditions: no agonist, 10 points, 3-fold dilution from 1 μM. Format: biochemical. Here is the method: (§1) The histamine H3 receptors mediate the histamine signals in CNS and peripheral nervous system. Histamine H3 receptors couple directly to a Gi/Go, resulting in subsequent GTPγδ binding. Although GTPγδ binding assays are carried out using membrane preparations in the similar way as radioligand binding assays, these are functional assays and can be used to differentiate agonist, antagonist, and inverse agonist activities. Such assays are carried out using [^35S]-guanosine-5′-O-(3-thio) triphosphate which provides a radioactive ligand with high affinity for G-protein a subunits that is highly resistant to the inherent GTPase activity of a subunits, such that it remains bound for sufficient periods of time to allow counting of radioactivity. The GTPγδ binding assay was performed using HEK293/Ga15/hH3R cell line with high histamine H3 receptors expression to determine H3 receptor GTPγδ binding affinity of representative compounds.
T1 sequence (Q9Y5N1 whole entry): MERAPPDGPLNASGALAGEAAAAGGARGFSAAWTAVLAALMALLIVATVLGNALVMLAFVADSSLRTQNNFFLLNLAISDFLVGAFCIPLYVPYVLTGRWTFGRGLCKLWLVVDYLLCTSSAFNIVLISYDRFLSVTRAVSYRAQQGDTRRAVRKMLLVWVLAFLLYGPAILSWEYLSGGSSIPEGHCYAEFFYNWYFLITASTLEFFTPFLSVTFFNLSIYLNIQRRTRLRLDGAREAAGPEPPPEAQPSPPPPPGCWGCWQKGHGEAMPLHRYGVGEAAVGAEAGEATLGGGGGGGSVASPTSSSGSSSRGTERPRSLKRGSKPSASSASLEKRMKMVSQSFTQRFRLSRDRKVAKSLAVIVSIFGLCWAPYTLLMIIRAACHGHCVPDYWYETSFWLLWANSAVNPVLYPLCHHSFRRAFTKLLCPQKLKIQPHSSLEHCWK
(§2) 1. [^35S]-GTPγδ binding assay for determining antagonist and inverse agonist pharmacological parameters of histamine H3 receptor ligands:
(§3) Experimental procedure: 1) Membrane preparation for HEK293/Ga15/hH3R; 2) Standard binding assay. Briefly, for membrane […], HEK293/Ga15/hH3R cells were grown to confluence, harvested and the cell pellets were suspended in TEL buffer (50 mM Tris-HCl buffer, 1 mM EGTA, 0.1 mM PMSF). Homogenate and centrifuge at 1,000 g for 10 min. Centrifuge the supernatant at 46,000 g for 30 min. Suspend the membrane pellet in 50 mM Tris with 0.32 M sucrose, pH 7.0. Aliquot at 1 mg protein/mL. Keep frozen and store at −80° C. until use. All compounds were prepared by dissolving in DMSO to make 10 mM stock. The 10 mM stock was used as top concentration […] to carry out 10-points, 3-fold dilution scheme using DMSO in a 96-well plate to make the compound dose plate. H3R GTPγδ binding assay was performed as followings: thaw the membrane at 37° C., chill on ice, add GDP and the membrane to assay buffer (50 mM Tris-HCl, 100 mM NaCl, 5 mM MgCl2, pH 7.4, and 0.2%, BSA). Stay on ice for 20 min. […] Add 20 μL [^35S]-GTPγδ (final 200 pM) and incubate at room temperature for 60 min. For antagonist mode: Add 20 μL agonist (R-alpha-methylhistamine, final concentration 1 μM), 20 μL testing compound (final top concentration 1 μM, 3-fold dilution, 10 points), 20 μL [^35S]-GTPγδ (final 200 pM), 140 μL membrane solution (total 200 μL, GDP 10μM, membrane protein 20 μg/well) to the assay plate. Incubate at room temperature for 60 min. Filter the assay plate on GF/C (non-PEI coated) plate to stop the assay. Dry GF/C plate for 1 h. Add 50 μL scintillation fluid and count on the MicroBeta.
(§4) Data Analysis: The CPM values were calculated into % of inhibition with the following formula:
For inverse agonist mode: % of inhibition=(DMSO control CPM−Compound CPM)/(DMSO control CPM−GTP control CPM)×100.
(§5) IC50s were calculated using Prism5 with log(inhibitor) vs. response equation.

Test [2] deals with T1, histamine H3 receptor (hH3R). Briefly: [35S]-GTPγS binding assay, antagonist mode, HEK293/Ga15/hH3R membranes. Format: biochemical. Conditions: agonist R-alpha-methylhistamine 1 μM, 10 points, 3-fold dilution from 1 μM. Here is the method: as §1, §2, §3, §4
For antagonist mode: % of inhibition=(R-alpha-methyl-histamine control CPM−Compound CPM)/(R-alpha-methyl-histamine control CPM−DMSO control CPM)×100.
as §5
In general terms: GTPγS is a poorly hydrolysed GTP analogue; its binding reports G protein activation.

As usually defined, the IC50 is the concentration at which inhibition is half-maximal.

In the case of `COc1cc(OCCCN2CCCC2)ccc1-n1c(C)nc2ccc(S(F)(F)(F)(F)F)cc2c1=O` [VI, 3-(2-methoxy-4-(3-(pyrrolidin-1-yl)propoxy)phenyl)-2-methyl-6-(pentafluorosulfanyl)quinazolin-4(3H)-one], the IC50 in test [1] is 5.5 nM; in test [2], 5.36 nM.

In the case of `Cc1nc2ccc(S(F)(F)(F)(F)F)cc2c(=O)n1-c1ccc(OCCCN2CCC(C)C2)cc1` (centres unmarked) [VII, 2-methyl-3-(4-(3-(3-methylpyrrolidin-1-yl)propoxy)phenyl)-6-(pentafluorosulfanyl)quinazolin-4(3H)-one], the values for the half-maximal inhibitory concentration (IC50) in test [1] and in test [2] were 10.5 nM and 3.44 nM, respectively.

Turning to `Cc1nc2ccc(S(F)(F)(F)(F)F)cc2c(=O)n1-c1ccc(OC2CCN(C(=O)C3CCCCC3)CC2)cc1` [XIX, 3-(4-((1-(cyclohexanecarbonyl)piperidin-4-yl)oxy)phenyl)-2-methyl-6-(pentafluorosulfanyl)quinazolin-4(3H)-one], the half-maximal inhibitory concentration (IC50) in test [1] and in test [2] was > 1000 nM each time.

Take `Cc1nc2ccc(S(F)(F)(F)(F)F)cc2c(=O)n1-c1ccc(OC2CCN(C3CCCC3)CC2)cc1` [XVI]: the half-maximal inhibitory concentration (IC50) was 175 nM in test [1] and 116 nM in test [2].

As for `Cc1nc2ccc(S(F)(F)(F)(F)F)cc2c(=O)n1-c1ccc(OC2CCN(C(=O)C3CCN(C)CC3)CC2)cc1` [XX, 2-methyl-3-(4-((1-(1-methylpiperidine-4-carbonyl)piperidin-4-yl)oxy)phenyl)-6-(pentafluorosulfanyl)quinazolin-4(3H)-one], the IC50 in test [1] stood at 50.5 nM; in test [2], 814 nM.

Consider `Cc1nc2ccc(S(F)(F)(F)(F)F)cc2c(=O)n1-c1ccc(OC2CCN(C(=O)C3CCOCC3)CC2)cc1` [XXI, 2-methyl-3-(4-((1-(tetrahydro-2H-pyran-4-carbonyl)piperidin-4-yl)oxy)phenyl)-6-(pentafluorosulfanyl)quinazolin-4(3H)-one], for which the IC50 is 286 nM in test [1] and > 1000 nM in test [2].

Turning to `COc1cc(OC2CCN(C(=O)C3CCOCC3)CC2)ccc1-n1c(C)nc2ccc(S(F)(F)(F)(F)F)cc2c1=O` [XXII, 3-(2-methoxy-4-((1-(tetrahydro-2H-pyran-4-carbonyl)piperidin-4-yl)oxy)phenyl)-2-methyl-6-(pentafluorosulfanyl)quinazolin-4(3H)-one], the values for the 50% inhibitory concentration (IC50) in test [1] and in test [2] were 229 nM and 242 nM, respectively.

Values taken from patent US10618886B1, “Compounds as neuronal histamine receptor-3 antagonists and uses thereof” (XW LABORATORIES INC., priority 2018, dated 2020).
